Data published in patent publication US20250051391A1, “PEPTIDE INHIBITORS AND METHODS FOR INHIBITING PROTEIN AGGREGATION IN NEURONS AND NEURODEGENERATIVE DISEASES” (THE GOVERNING COUNCIL OF THE UNIVERSITY OF TORONTO, priority 2021, published 2025).
Entries after “also recorded” stand apart in the source; their conditions may differ. Numbered stars: 1 amine (or outer) side, 2 acyl side, 3 side chain; on linkers, the order of the positions; unused ones are H or OH. Bridge positions count the residues as written; N and C are the ends. Ends that are not written are not given here. Peptide text beside a SMILES is read from it. * marks the point of attachment. Perfluorobiphenyl(4,4') = Fc1c(F)c([*:1])c(F)c(F)c1-c1c(F)c(F)c([*:2])c(F)c1F; FITC = O=C1OC2(c3ccc(O)cc3Oc3cc(O)ccc32)c2ccc(NC(=S)*)cc21; Ahx = NCCCCCC(=O)O

What was measured:
[1] = test system: HEK293 cells overexpressing WT or A53T a-syn; assay: Cell Titer-Glo cell viability assay in a-syn expressing cells; format: cell-based, human
WT a-syn oligomers = assay: Split luciferase a-syn oligomer/aggregation assay; format: cell-based, human; conditions: cells stably expressing split luciferase a-synuclein constructs; stapled peptides
Procedure: tet-off cells stably expressing split luciferase a-syn constructs were trypsinized from subconfluent culture and seeded in a 96-well plate at a density of 15,000 cells per well. Cells were incubated overnight at 37° C. in 5% CO2. […] After 6 h of incubation, 20 μL of cell medium was transferred to a black flat-bottomed 96-well plate. 50 μL of Working solution (Pierce Gaussia-Firefly Luciferase Dual Assay Kit, Thermo Scientific #16181) was added into each well containing cell medium. Immediately after adding the reagent, samples were read using a luminometer with a 480 nm filter.

[2] = test system: HEK293 cells overexpressing WT or A53T a-syn; assay: Cell Titer-Glo cell viability assay in a-syn expressing cells; format: cell-based, human; conditions: HEK293 cells overexpressing WT or A53T a-syn, with or without MG132; expressed GFP-peptide or protein
Procedure: Oligonucleotides encoding the specific peptides were synthesized and individually cloned into the pLJM1 nGFP lentiviral vector. Cells were infected with individual constructs, and cell viability was assessed using Cell Titer-Glo Luminescent assay (Promega) at 72 h post infection.
Cells were trypsinized from subconfluent cultures as described earlier, suspended in culture media, and then seeded into triplicate wells of a 96-well plate (100 μl well/1) at a density of 1.5×10^4 cells per well at standard culture conditions of 5% CO2 in air at 37° C. Cells were infected with lentivirus expressing peptide at an MOI of 5 for 72 h or transfected with plasmid for 72 h. Cell Titer-Glo reagent was added to each well (30 μL), according to the manufacturer's protocol and […].

A53T a-syn = assay: a-syn protein levels by immunoblot in HEK293 cells; format: cell-based, human; conditions: HEK293 cells expressing A53T a-syn
Procedure: Infected or transfected cells were scraped from 6-well dishes and lysed with lysis buffer (50 mM Tris-HCl pH7.4, 1% Nonidet P-40, 150 mM NaCl, 1 mM EDTA, 1× protease inhibitor mixture (Sigma)) for 30 min at 4° C. The insoluble pellet was removed following a 10,000 rpm spin for 5 minutes at 4° C. Lysates were analyzed by SDS-PAGE/immunoblot using 4-20% Mini-PROTEAN Tris-glycine gels (Bio-Rad) transferred to PVDF membranes and blocked in 5% milk containing PBS-Tween-20 (0.1%) for 1 h. PVDF membranes were then incubated with specified primary antibodies followed by incubation with horseradish peroxidase-conjugated secondary antibodies (Santa Cruz Biotechnology) and detected using enhanced chemiluminescence (GE Healthcare).

VPS4 = conditions: motif-domain interaction, reference (20); read-out: affinity of CHMP2B-VPS4 interaction; cited from earlier work
[3] = molecular target: T1, Charged multivesicular body protein 2B (CHMP2B), full length, purified (human, UniProt Q9UQN3 2-213); assay: fluorescence polarization, FITC-labelled a-syn peptide, CHMP2B titrated
T1 construct: mature; not shown: tag from the pET-DEST42 vector used for Ni-NTA purification

CHMP2B 1-199 truncation [4] = molecular target: T2, CHMP2B 1-199 truncation (human, UniProt Q9UQN3 1-199); assay: fluorescence polarization
T2 construct: Tags and purification of the truncated protein are not described

[5] = molecular target: T1, Charged multivesicular body protein 2B …; assay: fluorescence polarization
[6] = molecular target: T1, Charged multivesicular body protein 2B …; assay: fluorescence polarization, 50 nM FITC-peptide, CHMP2B titrated
[7] = molecular target: T3, VPS4B, purified (His-tagged Sumo construct) (UniProt O75351 1-444); assay: fluorescence polarization (FIG. 8)
T3 construct: also called Vacuolar Protein Sorting 4; not shown: His tag and Sumo (pRSet B vector)
T3 sequence (looked up): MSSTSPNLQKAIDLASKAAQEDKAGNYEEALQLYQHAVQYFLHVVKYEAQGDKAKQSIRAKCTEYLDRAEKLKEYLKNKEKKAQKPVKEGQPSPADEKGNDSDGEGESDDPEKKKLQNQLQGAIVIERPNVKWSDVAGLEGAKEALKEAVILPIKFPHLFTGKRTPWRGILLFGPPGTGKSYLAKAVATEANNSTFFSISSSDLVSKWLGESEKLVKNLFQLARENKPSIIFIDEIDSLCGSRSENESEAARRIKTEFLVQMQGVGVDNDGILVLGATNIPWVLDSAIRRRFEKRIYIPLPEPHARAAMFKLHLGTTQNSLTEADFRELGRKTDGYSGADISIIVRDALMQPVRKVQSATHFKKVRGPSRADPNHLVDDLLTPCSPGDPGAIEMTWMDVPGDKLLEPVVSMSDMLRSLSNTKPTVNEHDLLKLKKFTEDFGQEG

[8] = molecular target: T3, VPS4B, purified (His-tagged Sumo …); assay: fluorescence polarization, FITC-peptide against VPS4B
[9] = molecular target: T1, Charged multivesicular body protein 2B …; assay: fluorescence polarization, stapled peptide against full length CHMP2B
CHMP2B 1-199 truncation [10] = molecular target: T2, CHMP2B 1-199 truncation; assay: fluorescence polarization, stapled peptide against truncated CHMP2B (1-199)

T1 sequence (Q9UQN3 2-213): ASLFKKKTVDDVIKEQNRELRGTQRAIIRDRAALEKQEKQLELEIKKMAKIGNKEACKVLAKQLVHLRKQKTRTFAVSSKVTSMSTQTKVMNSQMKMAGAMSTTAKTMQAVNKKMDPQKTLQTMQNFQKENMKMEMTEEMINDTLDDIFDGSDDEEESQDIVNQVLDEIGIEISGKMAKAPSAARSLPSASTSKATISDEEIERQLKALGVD
T2 sequence (Q9UQN3 1-199 limits assumed): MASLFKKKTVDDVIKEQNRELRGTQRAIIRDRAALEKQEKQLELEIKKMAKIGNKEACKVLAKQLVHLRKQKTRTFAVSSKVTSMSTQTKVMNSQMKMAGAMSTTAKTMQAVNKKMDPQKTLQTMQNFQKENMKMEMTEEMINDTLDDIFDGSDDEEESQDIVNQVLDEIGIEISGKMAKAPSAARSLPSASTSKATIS

Molecule: DEEYCRQWKALC (cysteine staple) [stapled macrocycle; cysteines introduced at the locations to be stapled]
- A53T cell viability, stapled peptides incubated [1]: increase in A53T cell viability
- a-syn aggregation measured by luciferase activity (WT a-syn oligomers): significant reduction in a-syn aggregation

Molecule: DIEICFQLKALC (cysteine staple) [stapled macrocycle; cysteines introduced at the locations to be stapled]
- A53T cell viability, stapled peptides incubated [1]: increase in A53T cell viability
- a-syn aggregation measured by luciferase activity (WT a-syn oligomers): significant reduction in a-syn aggregation

Molecule: CHMP2B (1-178): shorter CHMP2B truncation (1-178) implicated in FTD
- cell viability / cytoprotective effect [2]: increased toxicity

Molecule: CHMP2B (1-199): truncated CHMP2B removing the MIM, residues 1-199
- a-syn protein levels by immunoblot (A53T a-syn): reduction in a-syn levels
- cell viability / cytoprotective effect [2]: rescues toxicity

Molecule: full-length CHMP2B: Charged Multivesicular Body Protein 2B, member of ESCRT-III, uniprot ID Q9UQN3
- a-syn protein levels by immunoblot (A53T a-syn): reduced a-syn protein levels; also recorded: reduces a-syn levels
- Kd (VPS4): 178000 nM
- cell viability / cytoprotective effect [2]: rescues a-syn cytotoxicity

Molecule: CC[C@H](C)[C@H](NC(=O)[C@H](CCC(=O)O)NC(=O)[C@H](CCC(=O)O)NC(=O)[C@H](CC(=O)O)NC(=O)CCCCCNC(=S)Nc1ccc2c(c1)C(=O)OC21c2ccc(O)cc2Oc2cc(O)ccc21)C(=O)N[C@H]1CSc2c(F)c(F)c(c(F)c2F)-c2c(F)c(F)c(c(F)c2F)SC[C@@H](C(N)=O)NC(=O)[C@H](CC(C)C)NC(=O)[C@H](C)NC(=O)[C@H](CC(=O)O)NC(=O)[C@H](CC(C)C)NC(=O)[C@H](CCC(N)=O)NC(=O)[C@H](CCCNC(=N)N)NC1=O ({FITC-Ahx}-DEEICRQLDALC-NH2; linker 5-12 via Perfluorobiphenyl(4,4'); N-terminus and C-terminus assumed)
- A53T cell viability, stapled peptides incubated [1]: increase in A53T cell viability
- a-syn aggregation measured by luciferase activity (WT a-syn oligomers): significant reduction in a-syn aggregation

Molecule: {FITC}-NEEGAPQEGILE [FITC-labelled a-syn peptide, amino acids 103-114 (NEEGAPQEGILE)]
- Kd [3]: 640 nM

Molecule: {FITC}-DIEICFQLKALC (linker 5-12 via hexafluorobenzene (inferred), also called optimized macrocycle) [Stapled peptide DIEICFQLKALC]
- binding result (CHMP2B 1-199 truncation [4]): binds
- binding result [5]: binds

B1: FITC-labeled PDpep1.3 peptide DEEIERQLKALG (peptide)
peptide: {FITC}-DEEIERQLKALG
notes: Synthetic peptide (LifeTein) with an N-terminal FITC moiety, used in the fluorescence polarization assays; also called DPpep1.3; FITC-Pdpep1.3
- Kd [6]: 1800 nM
- Kd [7]: > 100000 nM
- Kd [8]: ~200000 nM

Molecule: {FITC}-DEEICRQLDALC (linker 5-12 via hexafluorobenzene (inferred), also called optimized macrocycle) [Stapled Pdpep1.4 variant DEEICRQLDALC]
- Kd [9]: 600 nM
- Kd (CHMP2B 1-199 truncation [10]): 60 nM
